Laboratory results from ChEMBL document CHEMBL3232855, “The discovery of N-((2H-tetrazol-5-yl)methyl)-4-((R)-1-((5r,8R)-8-(tert-butyl)-3-(3,5-dichlorophenyl)-2-oxo-1,4-diazaspiro[4.5]dec-3-en-1-yl)-4,4-dimethylpentyl)benzamide (SCH 900822): a potent and selective glucagon receptor antagonist” (J Med Chem, 2014).
Activity calls are given as the source filed them. The calls are words filed in the database; no cut-off is given here.

Key:
[1] = Oral bioavailability in rat at 3 mg/kg; assay type: ADME, organism-based; conditions: in vivo
[2] = Plasma concentration in streptozotocin-induced ICR mouse type-2 diabetic model at 3 mg/kg, po measured at 8 hrs by HPLC/MS/MS analysis; assay type: ADME, organism-based; design: dose 3 mg/kg, route oral
Mus musculus [3] = assay: Antidiabetic activity in streptozotocin-induced ICR mouse type-2 diabetic model assessed as decrease in fasting blood glucose level at 30 mg/kg, po measured at 8 hrs by glucometer relative to vehicle-treated control; assay type: functional, organism-based; design: dose 30 mg/kg
[4] = Plasma concentration in streptozotocin-induced ICR mouse type-2 diabetic model at 30 mg/kg, po measured at 8 hrs by HPLC/MS/MS analysis; assay type: ADME, organism-based; design: dose 30 mg/kg, route oral
Glucagon receptor [5] = target: Glucagon receptor (Mus musculus, UniProt Q61606); assay type: cell membranes, Liver, Membrane
Glucagon receptor (Mus musculus, UniProt Q61606), sequence (Q61606 whole entry): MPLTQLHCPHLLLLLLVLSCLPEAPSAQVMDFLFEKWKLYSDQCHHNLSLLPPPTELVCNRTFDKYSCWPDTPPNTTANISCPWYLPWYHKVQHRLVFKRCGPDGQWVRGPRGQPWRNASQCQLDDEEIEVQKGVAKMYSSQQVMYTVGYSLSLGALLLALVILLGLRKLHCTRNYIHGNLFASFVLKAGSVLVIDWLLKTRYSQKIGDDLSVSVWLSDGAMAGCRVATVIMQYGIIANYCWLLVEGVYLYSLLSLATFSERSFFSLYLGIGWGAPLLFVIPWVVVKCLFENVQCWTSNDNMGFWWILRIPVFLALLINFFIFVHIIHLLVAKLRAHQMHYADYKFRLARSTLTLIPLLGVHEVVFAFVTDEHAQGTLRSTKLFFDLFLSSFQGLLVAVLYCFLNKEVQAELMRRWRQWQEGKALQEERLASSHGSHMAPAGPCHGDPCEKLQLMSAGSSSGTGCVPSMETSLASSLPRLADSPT
Description: Displacement of [125I]-glucagon from GCGR in mouse liver membranes after 60 mins by scintillation counting analysis

Adenosine receptor A3 = target: T1, Adenosine receptor A3 (Homo sapiens, UniProt P0DMS8); assay: Binding affinity to adenosine A3 receptor (unknown origin) by agonist displacement assay
T1 sequence (P0DMS8 whole entry): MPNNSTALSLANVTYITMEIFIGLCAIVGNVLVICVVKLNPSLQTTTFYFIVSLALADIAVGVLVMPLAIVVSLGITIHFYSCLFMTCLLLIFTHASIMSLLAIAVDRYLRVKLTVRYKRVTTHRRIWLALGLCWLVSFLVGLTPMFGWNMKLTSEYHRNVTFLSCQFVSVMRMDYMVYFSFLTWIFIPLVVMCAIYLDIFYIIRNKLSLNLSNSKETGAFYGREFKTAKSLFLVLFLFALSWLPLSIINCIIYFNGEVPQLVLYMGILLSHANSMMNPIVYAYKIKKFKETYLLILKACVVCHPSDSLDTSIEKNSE

[6] = Plasma concentration in streptozotocin-induced ICR mouse type-2 diabetic model at 10 mg/kg, po measured at 8 hrs by HPLC/MS/MS analysis; assay type: ADME, organism-based; design: dose 10 mg/kg, route oral
Glucagon receptor [7] = target: Glucagon receptor (Homo sapiens, UniProt P47871); assay: biochemical; assay type: cell-based, CHO
Glucagon receptor (Homo sapiens, UniProt P47871), sequence (P47871 whole entry): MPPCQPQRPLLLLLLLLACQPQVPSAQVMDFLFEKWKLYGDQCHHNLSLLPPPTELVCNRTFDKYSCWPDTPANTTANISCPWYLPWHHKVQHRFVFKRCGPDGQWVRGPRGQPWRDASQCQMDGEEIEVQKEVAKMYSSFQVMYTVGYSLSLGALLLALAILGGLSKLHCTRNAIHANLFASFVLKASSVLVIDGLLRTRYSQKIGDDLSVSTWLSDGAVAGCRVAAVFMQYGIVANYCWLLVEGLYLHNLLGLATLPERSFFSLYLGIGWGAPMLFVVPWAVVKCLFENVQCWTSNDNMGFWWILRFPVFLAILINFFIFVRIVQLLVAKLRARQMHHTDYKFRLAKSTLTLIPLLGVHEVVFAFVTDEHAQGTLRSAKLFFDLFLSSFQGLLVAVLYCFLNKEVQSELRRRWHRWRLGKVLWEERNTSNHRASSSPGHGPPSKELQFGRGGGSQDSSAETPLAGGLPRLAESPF
Description: Displacement of [125I]-glucagon from recombinant human GCGR expressed in CHO cells after 60 mins by scintillation counting analysis

[8] = Volume of distribution at steady state in rat at 3 mg/kg, iv; assay type: ADME, organism-based; design: dose 3 mg/kg, route intravenous; conditions: in vivo, read-out: Vdss
[9] = target: T2, Vasoactive intestinal polypeptide receptor 1 (Homo sapiens) (UniProt P32241); assay: Binding affinity to VIP-1 receptor (unknown origin) at 10 uM by agonist displacement assay relative to control
T2 sequence (whole entry): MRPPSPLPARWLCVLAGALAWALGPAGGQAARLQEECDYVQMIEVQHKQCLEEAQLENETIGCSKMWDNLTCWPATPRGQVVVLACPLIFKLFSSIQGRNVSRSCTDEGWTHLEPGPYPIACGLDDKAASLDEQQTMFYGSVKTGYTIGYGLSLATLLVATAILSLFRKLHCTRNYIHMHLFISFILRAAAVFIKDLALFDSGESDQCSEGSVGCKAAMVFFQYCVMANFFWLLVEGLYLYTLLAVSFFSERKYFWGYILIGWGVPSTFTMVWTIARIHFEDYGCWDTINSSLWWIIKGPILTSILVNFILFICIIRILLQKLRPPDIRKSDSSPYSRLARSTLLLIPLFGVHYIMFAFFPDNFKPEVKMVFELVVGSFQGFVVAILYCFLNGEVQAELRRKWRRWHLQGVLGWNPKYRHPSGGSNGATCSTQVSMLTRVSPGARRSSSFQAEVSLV

Rattus norvegicus = assay: Dose-normalized AUC in rat at 3 mg/kg, po; assay type: ADME, organism-based; design: dose 3 mg/kg, route oral; conditions: in vivo
[10] = Oral bioavailability in mouse at 3 mg/kg; assay type: ADME, organism-based; conditions: in vivo
[11] = Oral bioavailability in dog at 5 mg/kg; assay type: ADME, organism-based, Canis lupus familiaris; conditions: in vivo
Mus musculus [12] = assay: Toxicity in streptozotocin-induced ICR mouse type-2 diabetic model assessed as effect on body weight at 3 to 30 mg/kg, po after 24 hrs; assay type: organism-based; design: dose 3-30 mg/kg, route oral; conditions: in vivo
[13] = Plasma concentration in diet-induced obese ICR mouse model at 10 mg/kg, po measured at 24 hrs by HPLC/MS/MS analysis; assay type: ADME, organism-based; design: dose 10 mg/kg, route oral
[14] = target: T3, Type-1 angiotensin II receptor (Homo sapiens) (UniProt P30556); assay: Binding affinity to AT1 receptor (unknown origin) at 10 uM by antagonist displacement assay relative to control
T3 sequence (whole entry): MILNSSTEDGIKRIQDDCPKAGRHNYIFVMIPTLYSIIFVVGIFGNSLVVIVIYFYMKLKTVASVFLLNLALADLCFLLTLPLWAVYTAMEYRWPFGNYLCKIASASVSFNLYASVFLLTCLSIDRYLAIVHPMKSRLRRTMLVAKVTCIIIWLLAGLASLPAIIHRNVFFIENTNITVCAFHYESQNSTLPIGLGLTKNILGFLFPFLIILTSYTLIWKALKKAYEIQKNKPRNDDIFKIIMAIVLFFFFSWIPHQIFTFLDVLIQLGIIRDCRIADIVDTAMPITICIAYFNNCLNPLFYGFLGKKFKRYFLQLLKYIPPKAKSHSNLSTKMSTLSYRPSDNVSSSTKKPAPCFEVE

Mus musculus [15] = assay: Dose-normalized AUC in mouse at 3 mg/kg, po; assay type: ADME, organism-based; design: dose 3 mg/kg, route oral; conditions: in vivo
[16] = Plasma clearance in rat at 3 mg/kg, iv; assay type: ADME, organism-based; design: dose 3 mg/kg, route intravenous
[17] = Half life in rat at 3 mg/kg, iv; assay type: ADME, organism-based; design: dose 3 mg/kg, route intravenous; conditions: in vivo
[18] = Half life in mouse at 3 mg/kg, iv; assay type: ADME, organism-based; design: dose 3 mg/kg, route intravenous; conditions: in vivo
[19] = Volume of distribution at steady state in mouse at 3 mg/kg, iv; assay type: ADME, organism-based; design: dose 3 mg/kg, route intravenous; conditions: in vivo, read-out: Vdss
[20] = Half life in monkey at 3 mg/kg, iv; assay type: ADME, organism-based, Macaca mulatta; design: dose 3 mg/kg, route intravenous; conditions: rhesus monkey, in vivo
[21] = Plasma clearance in mouse at 3 mg/kg, iv; assay type: ADME, organism-based; design: dose 3 mg/kg, route intravenous
[22] = Oral bioavailability in monkey at 3 mg/kg; assay type: ADME, organism-based, Macaca mulatta; conditions: rhesus monkey, in vivo
[23] = Half life in dog at 1 mg/kg, iv; assay type: ADME, organism-based, Canis lupus familiaris; design: dose 1 mg/kg, route intravenous; conditions: in vivo
[24] = target: T4, Adenosine receptor A3 (Homo sapiens) (UniProt P0DMS8); conditions: 10 uM
T4 sequence (whole entry): T1 sequence (P0DMS8 whole entry)
Description: Binding affinity to adenosine A3 receptor (unknown origin) at 10 uM by agonist displacement assay relative to control

Canis familiaris = assay: Dose-normalized AUC in dog at 5 mg/kg, po; assay type: ADME, organism-based, Canis lupus familiaris; design: dose 5 mg/kg, route oral; conditions: in vivo
[25] = Plasma clearance in monkey at 3 mg/kg, iv; assay type: ADME, organism-based, Macaca mulatta; design: dose 3 mg/kg, route intravenous; conditions: rhesus monkey
Mus musculus [26] = assay: Antidiabetic activity in diet-induced obese ICR mouse model assessed as inhibition of glucagon-induced glucose excursion at 10 to 30 mg/kg, po bid measured for 60 mins by glucometer; assay type: functional, organism-based
Mus musculus [27] = assay: Antidiabetic activity in diet-induced obese ICR mouse model assessed as decrease in nonfasting blood glucose level at 3 to 10 mg/kg, po measured at 24 hrs by glucometer; assay type: functional, organism-based
Rhesus monkey = assay: Dose-normalized AUC in monkey at 3 mg/kg, po; assay type: ADME, organism-based, Macaca mulatta; design: dose 3 mg/kg, route oral; conditions: in vivo

CC(C)(C)CC[C@H](c1ccc(C(=O)NCc2nn[nH]n2)cc1)N1C(=O)C(c2cc(Cl)cc(Cl)c2)=N[C@]12CC[C@@H](C(C)(C)C)CC2
bioavailability [1]: 15%
concentration at 8 h [2]: 1100 nM
Activity (Mus musculus [3]): Active
concentration at 8 h [4]: 8500 nM
IC50 (Glucagon receptor [5]): 130 nM
Ki (Adenosine receptor A3): 2430 nM
concentration at 8 h [6]: 4500 nM
IC50 (Glucagon receptor [7]): 24 nM
Vd [8]: 1.3 L/kg
inhibition [9]: 75%
AUC/dose (Rattus norvegicus): 2.2 µM·h/mg/kg
bioavailability [10]: 31%
bioavailability [11]: 32%
Activity (Mus musculus [12]): Non-toxic
concentration at 24 h [13]: 810 nM
inhibition [14]: 93%
AUC/dose (Mus musculus [15]): 6 µM·h/mg/kg
clearance [16]: 1.8 mL/min/kg
half-life [17]: 8.3 h
half-life [18]: 11 h
Vd [19]: 1.3 L/kg
half-life [20]: 7.9 h
clearance [21]: 1.4 mL/min/kg
bioavailability [22]: 49%
half-life [23]: 6.1 h
inhibition [24]: 96%
AUC/dose (Canis familiaris): 30 µM·h/mg/kg
clearance [25]: 0.6 mL/min/kg
inhibition (Mus musculus [26]): Active
Activity (Mus musculus [27]): Active
AUC/dose (Rhesus monkey): 22 µM·h/mg/kg
